From paper PMC11510177, “New Phytol Derivatives with Increased Cosmeceutical Potential” (Molecules, 2024)
Read-outs that look alike come from different tables or passages of the source.

Key:
[1] = biological target: T1, tyrosinase (Agaricus bisporus, UniProt C7FF04); test: Tyrosinase inhibition assay; format: biochemical
T1 construct: purchased Sigma-Aldrich
Experimental: The extracts were assayed by adapting the tyrosinase inhibition method described by Shimizu et al. and modified by Manosroi et al.. […] The experiments were carried out in triplicate. For each concentration, enzyme activity was calculated as a percentage of the velocities compared to that of the assay using buffer without any inhibitor.

[2] = tested on: elastase; test: Elastase inhibition assay; format: biochemical; settings: 100 µM
Experimental: The extracts were assayed by the method described by Ndlovu et al. with some modifications. In brief, 25 μL of elastase enzyme solution (0.3 U/mL), 50 μL of ten serial concentrations of the extracts or fractions (0.100–100 μM dissolved in 100 mM HEPES buffer, pH 7.5 containing no more than 2.5 % DMSO), and 125 μL HEPES buffer were mixed in a 96-well plate and incubated at room temperature for 20 min. Then, 50 μL of N-methoxysuccinyl-Ala-Ala-Pro-Val-p-nitroanilide (1 mM) was added. The enzyme activity was measured at 405 nm in the moment of substrate addition and after 40 min of incubation at 25 °C. N-Methoxysuccinyl-Ala-Ala-Pro-chloromethyl ketone at 0.100–100 μM was used as a positive control. The experiments were carried out in triplicate. For each concentration, enzyme activity was calculated as a percentage of the velocities compared to that of the assay, using buffer without any inhibitor. The IC50 value, which was the sample concentration that inhibited 50% of the enzyme activity, was determined interpolation from the % elastase inhibition vs. concentration curve.

[3] = ABTS radical scavenging assay; settings: 100 µM
Experimental: The method of Re et al. was adopted to perform the ABTS radical scavenging assay. The stock solutions included a 7 mM ABTS solution (2,2′-azinobis-(3 ethylbenzothiazoline 6 sulfonic acid)) and a 2.4 mM potassium persulfate solution. The working solution was prepared by mixing the two stock solutions in equal quantities and allowing for them to react for 12–16 h at room temperature in the dark. The solution was then diluted by mixing 1 mL ABTS solution with the amount of methanol necessary to obtain an absorbance of 0.7 at 734 nm. Serial dilutions of studied extracts or reference compound (Trolox) were carried out in 96-well microplates, with concentrations ranging between 0.100 μM and 100 μM in methanol. ABTS solution was then added to the microwells, and after 8 min of incubation, the absorbance was recorded at […]. In each assay, a negative control was prepared in which the same amount of solvent substituted the sample. The percentage of antioxidant activity (% AA) was calculated as %AA = [(Abscontrol − Abssample)/Abscontrol] × 100 (2) where Abscontrol is the absorbance of ABTS radical + methanol; Abssample is the absorbance of ABTS radical + sample/standard.
All assays were carried out in triplicate and results expressed as IC50, i.e., as the concentration yielding 50% scavenging of ABTS, calculated by interpolation from the % AA vs. concentration curve.

[4] = tested on: collagenase; test: Collagenase inhibition assay; format: biochemical; settings: 100 µM; for fold increase in collagenase inhibition over phytol: compared to phytol
Experimental: An adaptation of the method of Mandl et al. was used to determine anti-collagenase activity. The following was added to 2 mL test tubes: 25 μL of collagenase solution (0.8 U/mL); 25 μL TES buffer (50 mM) with 0.36 mM calcium chloride, pH 7.4; and 50 μL of test sample or the reference compound EDTA (with concentrations ranging between 0.100 and 100 μM). The tubes were incubated in a water bath at 37 °C for 20 min. Thereafter, 50 μL FALGPA (1 mM) solution was added to the tubes and further incubated for 60 min at 37 °C. To all tubes, 200 μL of a solution containing equal volumes of a 1.6 mg/mL tin chloride (II) solution in 200 mM citrate buffer, pH 5, and 50 mg/mL ninhydrin solution in DMSO were added. All tubes were placed in a water bath (100 °C) for 5 min and left to cool to room temperature before adding 200 μL of 50% isopropanol to each tube. Contents in the tubes were then transferred to respective wells in 96-well plates. Absorbance was detected at 550 nm. EDTA was used as a control inhibitor. Percentage of collagenase inhibition was calculated as % Collagenase inhibition = [(Abscontrol − Abssample)]/Abscontrol] × 100 (5) where Abscontrol is the absorbance of buffer + collagenase; Abseample is the absorbance of buffer + collagenase + sample/standard.
All assays were carried out in triplicate and results expressed as IC50, i.e., as the concentration yielding 50% of collagenase inhibition, calculated by interpolation from the % collagenase inhibition vs. concentration curve.

[5] = tested on: hyaluronidase; test: Hyaluronidase inhibition assay; format: biochemical; settings: 100 µM; for increase in hyaluronidase inhibition over phytol: relative to phytol
Experimental: The assay was conducted following the Sigma protocol with minor adjustments. In a microplate, 25 µL of 5 U/mL of hyaluronidase prepared in 20 mM sodium phosphate buffer (pH 7.0) with 77 mM sodium chloride and 0.01% BSA, was pre-incubated with 50 µL of the sample in concentrations ranging from between 0.100 μM and 100 μM for 10 min at 37 °C. Subsequently, the assay was initiated by adding 25 µL hyaluronic acid (0.015 % in 300 mM sodium phosphate, pH 5.35) to the incubation mixture and incubated for an additional 30 min at 37 °C. Undigested hyaluronic acid was precipitated with 200 µL acid albumin solution composed of 0.1 % bovine serum albumin in 24 mM sodium acetate and 79 mM acetic acid (pH 3.75). After standing at room temperature for 10 min, the absorbance of the reaction mixture was measured at 600 nm. The absorbance in the absence of enzymes (blank) served as the reference value for maximum absorbance. Sodium aurothiomalate was used as a control inhibitor. Enzyme activity was verified by a control experiment conducted simultaneously, in which the enzyme was pre-incubated with buffer instead, followed by the assay procedures described above. The inhibitory activity of the test compound was determined as follows:%Inhibition = [1 − (Absblank − Abssample)/(Absblank − Abscontrol)] × 100(4) where Absblank is the absorbance of the reaction without enzyme, Abssample is the absorbance of the extract or standard compound sodium aurothiomalate, and Abscontrol is the absorbance of the enzyme without inhibitor. The IC50 value, which was the sample concentration that inhibited 50% of the enzyme activity, was determined by interpolation from the % hyaluronidase inhibition vs. concentration curve.

[6] = DPPH radical scavenging assay; settings: 100 µM
Experimental: Antioxidant activity was assayed by the 1,1-diphenyl-2-picryl-hydrazyl (DPPH) radical scavenging assay. Serial dilutions of studied extracts or reference compound (Trolox) were carried out in 96-well microplates, with concentrations ranging between 0.100 μM and 100 μM in methanol. DPPH dissolved in methanol was added to the microwells, yielding a final concentration of 45 µg/mL, and the absorbance at 515 nm was measured after 30 min in the dark. In each assay, a control was prepared in which the same amount of solvent substituted the sample or standard. Percentage of antioxidant activity (% AA) was calculated as %AA = [(Abscontrol − Abssample)/Abscontrol] × 100 (1) where Abscontrol is the absorbance of the control and Abssample is the absorbance of the alga extract or standard. All assays were carried out in triplicate and the results expressed as IC50, i.e., as the concentration yielding 50% scavenging of DPPH, calculated by interpolation from the % AA vs. concentration curve.

[7] = read-out: IC50 against tyrosinase

T1 sequence (C7FF04 1-392 limits assumed): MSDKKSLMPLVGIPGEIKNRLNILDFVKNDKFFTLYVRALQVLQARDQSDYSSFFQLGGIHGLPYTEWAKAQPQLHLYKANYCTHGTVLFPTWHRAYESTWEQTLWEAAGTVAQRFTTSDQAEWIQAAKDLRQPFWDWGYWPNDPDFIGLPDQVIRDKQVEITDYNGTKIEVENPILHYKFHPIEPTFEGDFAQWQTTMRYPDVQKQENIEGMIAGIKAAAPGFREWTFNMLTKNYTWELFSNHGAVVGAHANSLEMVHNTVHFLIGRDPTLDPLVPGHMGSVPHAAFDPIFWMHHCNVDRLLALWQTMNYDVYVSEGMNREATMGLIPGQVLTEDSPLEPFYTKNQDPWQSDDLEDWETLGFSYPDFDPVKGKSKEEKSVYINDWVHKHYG

Row | SMILES | IC50 [1, 7] | elastase inhibition [2] | Percentage of ABTS scavenging [3] | collagenase inhibition [4] | fold increase in collagenase inhibition over phytol [4] | hyaluronidase inhibition [5] | increase in hyaluronidase inhibition over phytol [5] | increase in ABTS antioxidant activity compared to phytol (1) [3] | Percentage of DPPH scavenging [6] | IC50 ([1]; IC50 against tyrosinase)
1 | C/C(=C\COC(=O)c1cccs1)CCC[C@H](C)CCC[C@H](C)CCCC(C)C [Compound 1i, Phytyl 2-thiophenecarbonoate] | > 100 µM | 18.19% | 40.58% | 41.68% | 1.28 fold | – | – | – | – | –
2 | COc1cccc(C(=O)OC/C=C(\C)CCC[C@H](C)CCC[C@H](C)CCCC(C)C)c1 [Compound 1c, Phytyl 3-methoxybenzoate] | 79 ± 0.87 µM | low | – | – | 1.42 fold | 40.1% | 28% | – | – | –
3 | COc1ccc(C(=O)OC/C=C(\C)CCC[C@H](C)CCC[C@H](C)CCCC(C)C)cc1 [Compound 1d, Phytyl 4-methoxybenzoate] | 27.9 µM | – | about 50% | 49.67% | 1.56 fold | 22.54% | – | 30% | – | –
4 | C/C(=C\COC(=O)/C=C/c1ccccc1)CCC[C@@H](C)CCC[C@@H](C)CCCC(C)C (stereo in doubt) [Compound 1f, Phytyl cinnamoate] | 95.68 ± 0.94 µM | – | about 50% | – | – | – | – | 30% | about 50% | –
5 | Cc1c(C)c2c(c(C)c1O)CCC(C)(C(=O)O)O2 (stereo not shown) [Trolox, 6-hydroxy-2,5,7,8-tetramethylchroman-2-carboxylic acid, reference compound] | – | – | – | – | – | – | – | – | 97.54% | –
6 | C/C(=C\COC(=O)C=Cc1ccc([N+](=O)[O-])cc1)CCC[C@H](C)CCC[C@H](C)CCCC(C)C [Compound 1g, Phytyl 4-nitrocinnamoate] | 64.1 ± 0.67 µM | – | 28.74% | 41.02% | 1.28 fold | 23.06% | – | – | 37.46% | –
7 | C/C(=C\COC(=O)c1ccccc1)CCC[C@@H](C)CCC[C@@H](C)CCCC(C)C (stereo in doubt) [Compound 1a, Phytyl benzoate] | 34.73 ± 0.1 µM | 43.28% | – | – | – | 37.32% | 15–20% | – | 4.75% | –
8 | C/C(=C\COC(=O)c1ccco1)CCC[C@H](C)CCC[C@H](C)CCCC(C)C [Compound 1h, Phytyl 2-furoate] | > 100 µM | 28.3% | – | 22.37% | – | 36.02% | 15–20% | – | – | –
9 | CC(=CCO)CCCC(C)CCCC(C)CCCC(C)C (stereo not shown) [Compound 1, 3,7,11,15-tetramethylhexadec-2-en-1-ol, reference compound] | – | 6.4% | – | 31.89% | – | – | – | – | – | 77.5 ± 0.8 µM
10 | C/C(=C\COC(=O)c1ccc(Cl)cc1)CCC[C@H](C)CCC[C@H](C)CCCC(C)C [Compound 1e, Phytyl 4-chlorobenzoate] | > 100 µM | 27.78% | – | – | 1.38 fold | 14.66% | – | 30% | 11.12% | –
11 | COc1ccccc1C(=O)OC/C=C(\C)CCC[C@H](C)CCC[C@H](C)CCCC(C)C [Compound 1b, Phytyl 2-methoxybenzoate] | 59.62 ± 0.51 µM | low | – | – | – | 34.74% | – | – | – | –
